From ChEMBL document CHEMBL3745652, “Synthesis and evaluation of pretomanid (PA-824) oxazolidinone hybrids” (Bioorg Med Chem Lett, 2016)
In brackets after ≈: the same amount, converted by molar mass. Activity calls are given as the source filed them. The rule behind the calls is not given here.

Assays:
[1] = Plasma protein binding in human; type: ADME, cell-free
[2] = test system: Mycobacterium tuberculosis; experiment: Antimicrobial activity against Mycobacterium tuberculosis H37Rv assessed as growth inhibition after 7 days by microbroth dilution method; type: functional; settings: 168 h
[3] = Apparent permeability from basolateral to apical side in human Caco2 cells; type: ADME, cell-based; settings: caco-2
[4] = test system: Streptococcus pneumoniae; experiment: Antimicrobial activity against Streptococcus pneumoniae; type: functional, organism-based
[5] = test system: Acinetobacter baumannii; experiment: Antimicrobial activity against Acinetobacter baumannii; type: functional, organism-based
[6] = test system: Escherichia coli; experiment: Antimicrobial activity against Escherichia coli; type: functional, organism-based
[7] = test system: Streptococcus pyogenes; experiment: Antimicrobial activity against Streptococcus pyogenes; type: functional, organism-based
[8] = test system: Bacillus anthracis; experiment: Antimicrobial activity against Bacillus anthracis; type: functional, organism-based
[9] = Half life in mouse liver microsomes; type: ADME; settings: microsomes
[10] = test system: Staphylococcus aureus; experiment: Antimicrobial activity against Staphylococcus aureus; type: functional, organism-based
[11] = test system: Klebsiella pneumoniae; experiment: Antimicrobial activity against Klebsiella pneumoniae; type: functional, organism-based
[12] = Apparent permeability from apical to basolateral side in human Caco2 cells; type: ADME, cell-based; settings: caco-2
[13] = test system: Vero; experiment: Cytotoxicity against African green monkey Vero cells by cell titer glo assay; type: cell-based; settings: Chlorocebus sabaeus
[14] = test system: Bacillus subtilis; experiment: Antimicrobial activity against Bacillus subtilis; type: functional, organism-based
[15] = test system: Enterococcus faecalis; experiment: Antimicrobial activity against Enterococcus faecalis; type: functional, organism-based

| SMILES | PPB [1] [%] | MIC [2] [µg/mL] | Papp [3] [×10⁻⁶ cm/s] | Activity [4] | Activity [5] | Activity [6] | Activity [7] | Activity [8] | t1/2 [9] [h] | Activity [10] | Activity [11] | Papp [12] [×10⁻⁶ cm/s] | IC50 [13] [µg/mL] | Activity [14] | Activity [15] |
| --- | --- | --- | --- | --- | --- | --- | --- | --- | --- | --- | --- | --- | --- | --- | --- |
| CC(=O)NC[C@H]1CN(c2ccc(N3CCOCC3)c(F)c2)C(=O)O1 [LINEZOLID] | 17.8 | 0.3 (≈ 0.889 µM) |  |  |  |  |  |  |  |  |  |  |  |  |  |
| O=[N+]([O-])c1cn2c(n1)OC[C@@H](OCc1ccc(N3CCOCC3)nc1)C2 | 14.5 | 3.13 (≈ 8.66 µM) | 27.63 | inactive | inactive | inactive | inactive | inactive | 28.1 | inactive | inactive | 37.13 | > 100 | inactive | inactive |
| O=C1CCCCN1c1ccc(CO[C@@H]2COc3nc([N+](=O)[O-])cn3C2)cc1F | 74.8 | 3.13 (≈ 8.02 µM) | 30.45 | inactive | inactive | inactive | inactive | inactive | 3.5 | inactive | inactive | 46.26 | > 100 | inactive | inactive |
| O=C1CSCCN1c1ccc(CO[C@@H]2COc3nc([N+](=O)[O-])cn3C2)cc1 | 59.8 | 25 (≈ 64 µM) | 38.05 | inactive | inactive | inactive | inactive | inactive | 0.51 | inactive | inactive | 39.56 | > 100 | inactive | inactive |
| O=[N+]([O-])c1cn2c(n1)OC[C@@H](OCc1ccc(N3CCSCC3)c(F)c1)C2 | 83.2 | 3.13 (≈ 7.94 µM) | 24.26 | inactive | inactive | inactive | inactive | inactive | 0.06 | inactive | inactive | 32.11 | 14.2 (≈ 36 µM) | inactive | inactive |
| O=[N+]([O-])c1cn2c(n1)OC[C@@H](OCc1ccc(N3CCCCC3)nc1)C2 | 76.7 | 0.78 (≈ 2.17 µM) | 29.04 | inactive | inactive | inactive | inactive | inactive | 1.3 | inactive | inactive | 37.64 | > 100 | inactive | inactive |
| O=C1COCCN1c1ccc(CO[C@@H]2COc3nc([N+](=O)[O-])cn3C2)cn1 | 27.9 | 3.13 (≈ 8.34 µM) | 23.82 | inactive | inactive | inactive | inactive | inactive | > 4 | inactive | inactive | 43.41 | > 100 | inactive | inactive |
| O=C1CCCCN1c1ccc(CO[C@@H]2COc3nc([N+](=O)[O-])cn3C2)cn1 | 39.6 | 3.13 (≈ 8.38 µM) | 29.56 | inactive | inactive | inactive | inactive | inactive | 20.4 | inactive | inactive | 33.68 | > 100 | inactive | inactive |
| O=[N+]([O-])c1cn2c(n1)OC[C@@H](OCc1ccc(N3CCCCC3)cc1)C2 | 83 | 0.39 (≈ 1.09 µM) | 26.33 | inactive | inactive | inactive | inactive | inactive | 0.49 | inactive | inactive | 31.76 | 11.6 (≈ 32.4 µM) | inactive | inactive |
